Laboratory results published in US9045438B2 (Silanes S.A. de C.V., priority 2002, dated 2015).

Key:
clinical = details: both, human, in vivo
[1] = test system: patients with uncontrolled type 2 diabetes mellitus; test: Random double blind clinical study in patients with uncontrolled type 2 diabetes mellitus, 90 days; assay type: in vivo, human; details: uncontrolled type 2 diabetes patients, final evaluation 90 days, dose by basal glycemia
Excerpt: Criteria for inclusion were as follows: • 1. […] Age 40 to 65; • 3. Capacity for deglutition; and • 4 Voluntary consent Criteria for exclusion were as follows: • 1. Pregnancy; • 2. Insulin treatment; and • 3. Personal background of systemic diseases such as: • a) Cardiac insufficiency; and • b) Hepatic or chronic hepatopathic insufficiency. • 4 Background of significant chronic complications with type 2 diabetes mellitus: • a) Renal insufficiency; • b) Ischemic cardiopathy; • c) Cerebral vascular disease; and • d) Visceral neuropathy. • 5. Background of short-term terminal diseases, such as: • a) Cancer; and • b) HIV • 6. […] Known intolerance or allergies to sulfonylureas or biguanides. Criteria for exclusion from the therapy, but not from the statistical analysis: • 1. Presence of severe hypoglycemia at the maximum dosages used in the study; • 2. Presence of severe hypoglycemia at the minimum dosages used in the study; • 3. Presence of intolerable undesirable effects with any of the medications used in the study; • 4. Failure to follow the medical treatment indicated; • 5. Failure to attend scheduled visits; • 6. Intercurrent illnesses or accidents that warrant hospitalization; • 7. […] Voluntary withdrawal from the study. The variables studied were as follows: • Dependent variables: • a) Glycemia between meals; • b) Glucosylated hemoglobin; • c) β cell function; • d) Insulin resistance; and • e) Metabolic profile. • Independent variable: • a) Hypoglycemic therapy. • Intervening variables: • a) Age; • b) Sex; • c) Body mass index; and • d) Evolution of diabetes. Clinical measurements and basal measurement of glycemia between meals, glucosylated hemoglobin, total cholesterol, cholesterol of high density lipoproteins, triglycerides, creatinine, uric acid, glutemic-oxaloacetic transaminase, glutemic-pyruvic transaminase, lactic dehydrogenase, alkaline and insulin phosphatase. Random assignment of patients to each group and pharmacological intervention in accordance with concentration of basal glycemia: [table] Clinical evaluation 30 and 60 days after beginning the study, measuring glycemia between meals and lactic dehydroginase. Final clinical evaluations 90 days after the study begins, measuring glycemia between meals, glucosylated hemoglobin, total cholesterol, high density lipoprotein cholesterol, triglyceride, creatinine, uric acid, glutemic-oxaloacetic transaminase, glutemic-pyruvic transaminase, lactic dehydrogenase, alkaline and insulin phosphatase. Undesirable effects were reported on a special record sheet, specifying each of the clinical manifestations considered probable, possible or directly related to the use of the drugs ingested.

type 2 diabetic patients = details: cited from earlier work

| SMILES | half-life (clinical) | Blood glucose between meals (change) [1] | Glucosylated hemoglobin HbA1c (change) [1] | Post-prandial blood glucose (change) [1] | potency relative to glibenclamide (type 2 diabetic patients; R. Groomis et al., Endocrinology 13:117-121 (2000)) | incidence of severe hypoglycemia versus glibenclamide (type 2 diabetic patients; type 2 diabetic patients, A. Holstein et al. (2000)) |
| --- | --- | --- | --- | --- | --- | --- |
| CCC1=C(C)CN(C(=O)NCCc2ccc(S(=O)(=O)NC(=O)N[C@H]3CC[C@H](C)CC3)cc2)C1=O [glimepiride] | 3.73 h | +0.68 | +0.25 | +0.99 | two times higher | lower incidence |
| CN(C)C(=N)N=C(N)N [metformin] |  | +0.75 | +0.06 | +1.08 |  |  |
